Data on one molecule can be found in ChEMBL document CHEMBL1909046, “DrugMatrix in vitro pharmacology data”.

Chain of Insulin receptor (P15127 27-759 limits assumed): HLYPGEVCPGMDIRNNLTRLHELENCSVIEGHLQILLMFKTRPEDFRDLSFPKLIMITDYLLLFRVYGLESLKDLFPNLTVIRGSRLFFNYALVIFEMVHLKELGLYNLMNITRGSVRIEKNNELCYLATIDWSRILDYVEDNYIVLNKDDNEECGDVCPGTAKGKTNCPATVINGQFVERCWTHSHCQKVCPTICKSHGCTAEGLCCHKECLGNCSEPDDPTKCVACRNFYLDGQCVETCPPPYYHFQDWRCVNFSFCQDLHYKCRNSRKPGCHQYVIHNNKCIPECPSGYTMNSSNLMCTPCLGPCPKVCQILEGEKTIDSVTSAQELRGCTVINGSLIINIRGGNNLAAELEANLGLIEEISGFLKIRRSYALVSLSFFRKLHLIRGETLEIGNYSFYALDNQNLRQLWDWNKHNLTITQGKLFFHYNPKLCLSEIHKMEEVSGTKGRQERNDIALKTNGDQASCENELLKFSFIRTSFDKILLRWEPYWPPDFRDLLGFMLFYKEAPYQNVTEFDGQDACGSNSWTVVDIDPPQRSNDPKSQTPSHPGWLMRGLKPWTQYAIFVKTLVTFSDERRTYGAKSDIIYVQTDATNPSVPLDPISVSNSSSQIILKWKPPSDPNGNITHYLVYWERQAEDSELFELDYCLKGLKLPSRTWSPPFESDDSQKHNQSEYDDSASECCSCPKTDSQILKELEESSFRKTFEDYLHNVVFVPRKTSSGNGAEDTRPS
Chain of Insulin receptor (P15127 764-1383 limits assumed): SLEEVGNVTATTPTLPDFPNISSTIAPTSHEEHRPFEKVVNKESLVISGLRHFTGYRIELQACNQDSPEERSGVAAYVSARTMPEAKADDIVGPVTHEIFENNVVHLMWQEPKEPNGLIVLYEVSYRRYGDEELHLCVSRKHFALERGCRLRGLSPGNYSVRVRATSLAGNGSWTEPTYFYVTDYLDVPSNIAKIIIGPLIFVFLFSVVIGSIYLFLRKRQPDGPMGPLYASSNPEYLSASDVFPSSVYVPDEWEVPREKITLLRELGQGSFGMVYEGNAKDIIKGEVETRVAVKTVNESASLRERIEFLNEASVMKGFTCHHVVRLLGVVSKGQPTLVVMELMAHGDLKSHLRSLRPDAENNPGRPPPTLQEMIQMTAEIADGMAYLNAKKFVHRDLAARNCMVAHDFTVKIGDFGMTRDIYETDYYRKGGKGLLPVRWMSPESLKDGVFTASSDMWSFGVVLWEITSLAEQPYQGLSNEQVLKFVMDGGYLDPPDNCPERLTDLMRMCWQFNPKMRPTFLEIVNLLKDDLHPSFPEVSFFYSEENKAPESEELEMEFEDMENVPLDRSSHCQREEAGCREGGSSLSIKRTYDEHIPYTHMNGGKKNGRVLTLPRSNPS

Tested on in one assay: not listed separately
Nature of the assay: DRUGMATRIX: Glutamate, AMPA radioligand binding (ligand: [3H] AMPA). The settings on record: Not Active = under 50% inhibition at 10 µM. It is filed as cell membranes, Rattus norvegicus, Wistar, Cerebral cortex, Membrane.
With `C/C=C1\[C@H]2C=C(C)C[C@]1(N)c1ccc(=O)[nH]c1C2` [HUPERZINE A], the IC50 result was “Not Active” and the Ki result is on record as “Not Active”.

Tested on in another assay: not listed separately
Nature of the assay: DRUGMATRIX: Phorbol Ester radioligand binding (ligand: [3H] PDBu). The settings on record: Not Active = under 50% inhibition at 10 µM. It is filed as cell membranes, Mus musculus, ICR, Brain, Membrane.
`C/C=C1\[C@H]2C=C(C)C[C@]1(N)c1ccc(=O)[nH]c1C2` [HUPERZINE A]: the IC50 result is reported as “Not Active” and the Ki entry is recorded as “Not Active”.

The target in another assay is Estrogen receptor beta (Homo sapiens, UniProt Q92731). Note: in other assays of this panel Not Active means under 50% inhibition at 10 µM.
Chain of Estrogen receptor beta (Q92731 whole entry): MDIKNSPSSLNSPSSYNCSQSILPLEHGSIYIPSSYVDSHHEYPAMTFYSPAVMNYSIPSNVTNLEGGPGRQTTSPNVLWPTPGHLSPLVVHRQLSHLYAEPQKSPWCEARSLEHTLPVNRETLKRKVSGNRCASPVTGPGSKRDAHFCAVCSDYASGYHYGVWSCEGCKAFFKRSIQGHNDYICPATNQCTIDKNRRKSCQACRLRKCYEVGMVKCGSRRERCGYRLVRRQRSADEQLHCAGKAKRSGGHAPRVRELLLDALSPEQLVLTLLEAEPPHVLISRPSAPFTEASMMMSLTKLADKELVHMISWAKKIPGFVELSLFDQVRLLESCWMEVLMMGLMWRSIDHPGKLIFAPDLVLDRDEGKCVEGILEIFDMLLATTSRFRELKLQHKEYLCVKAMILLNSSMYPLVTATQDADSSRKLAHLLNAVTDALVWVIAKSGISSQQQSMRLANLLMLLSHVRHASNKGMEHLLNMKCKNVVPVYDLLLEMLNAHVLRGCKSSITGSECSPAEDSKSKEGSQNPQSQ
Test: not given
The settings on record: sf9.
On to `C/C=C1\[C@H]2C=C(C)C[C@]1(N)c1ccc(=O)[nH]c1C2` [HUPERZINE A], for which the IC50 entry was “Not Active”.

The target of a further assay is C-C chemokine receptor type 2 (Homo sapiens, UniProt P41597). Note: in other assays of this panel Not Active means under 50% inhibition at 10 µM.
Chain of C-C chemokine receptor type 2 (P41597 whole entry): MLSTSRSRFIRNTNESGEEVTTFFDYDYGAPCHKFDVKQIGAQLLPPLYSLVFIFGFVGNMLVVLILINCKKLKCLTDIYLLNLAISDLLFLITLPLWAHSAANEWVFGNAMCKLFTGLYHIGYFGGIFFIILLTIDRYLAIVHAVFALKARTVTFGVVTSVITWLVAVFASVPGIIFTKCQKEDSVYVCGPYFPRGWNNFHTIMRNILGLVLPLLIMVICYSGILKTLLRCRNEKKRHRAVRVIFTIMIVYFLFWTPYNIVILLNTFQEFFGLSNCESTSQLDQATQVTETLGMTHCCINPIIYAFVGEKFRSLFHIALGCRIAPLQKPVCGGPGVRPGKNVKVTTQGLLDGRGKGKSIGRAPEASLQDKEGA
Test: not given
Format: cell membranes, CHO-K1, Membrane. The settings on record: cho-k1.
Turning to `C/C=C1\[C@H]2C=C(C)C[C@]1(N)c1ccc(=O)[nH]c1C2` [HUPERZINE A], the IC50 entry is recorded as “Not Active”.

The target in the next assay is T1, Neuropeptide Y receptor type 1 (Homo sapiens, UniProt P25929). Note: in other assays of this panel Not Active means under 50% inhibition at 10 µM.
T1 sequence (P25929 whole entry): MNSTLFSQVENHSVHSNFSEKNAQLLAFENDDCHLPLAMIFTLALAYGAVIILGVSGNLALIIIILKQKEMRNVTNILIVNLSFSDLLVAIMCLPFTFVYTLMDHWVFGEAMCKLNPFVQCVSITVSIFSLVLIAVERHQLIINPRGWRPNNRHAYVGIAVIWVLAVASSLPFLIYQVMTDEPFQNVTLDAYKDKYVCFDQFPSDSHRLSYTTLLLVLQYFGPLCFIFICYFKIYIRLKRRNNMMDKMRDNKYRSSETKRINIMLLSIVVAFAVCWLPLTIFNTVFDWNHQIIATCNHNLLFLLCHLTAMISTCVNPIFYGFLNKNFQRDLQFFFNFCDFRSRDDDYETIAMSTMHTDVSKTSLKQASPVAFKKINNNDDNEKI
Test: not given
The settings on record: sk-n-mc. It is filed as cell membranes, Membrane.
On to `C/C=C1\[C@H]2C=C(C)C[C@]1(N)c1ccc(=O)[nH]c1C2` [HUPERZINE A], for which the IC50 entry was “Not Active”.

For the next assay, the target named is T2, Neutrophil elastase (Homo sapiens, UniProt P08246).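 Note: inhibition of neutrophil elastase enzyme activity, measured with a p-nitroanilide-linked peptide substrate; in other assays of this panel Not Active means under 50% inhibition at 10 µM.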
T2 sequence (P08246 whole entry): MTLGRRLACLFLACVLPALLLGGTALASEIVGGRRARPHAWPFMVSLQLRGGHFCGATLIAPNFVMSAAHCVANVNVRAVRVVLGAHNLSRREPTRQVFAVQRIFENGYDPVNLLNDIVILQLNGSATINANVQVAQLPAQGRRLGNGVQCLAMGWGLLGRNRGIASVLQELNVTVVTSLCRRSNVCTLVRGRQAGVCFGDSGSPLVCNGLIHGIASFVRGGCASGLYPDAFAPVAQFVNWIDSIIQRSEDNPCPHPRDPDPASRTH
Test: not given
Details: not given
Format: tissue-based.
Consider `C/C=C1\[C@H]2C=C(C)C[C@]1(N)c1ccc(=O)[nH]c1C2` [HUPERZINE A], for which the IC50 result is recorded as “Not Active”.

For a further assay, the target named is T3, C-C chemokine receptor type 4 (Homo sapiens, UniProt P51679). Note: in other assays of this panel Not Active means under 50% inhibition at 10 µM.
T3 sequence (P51679 whole entry): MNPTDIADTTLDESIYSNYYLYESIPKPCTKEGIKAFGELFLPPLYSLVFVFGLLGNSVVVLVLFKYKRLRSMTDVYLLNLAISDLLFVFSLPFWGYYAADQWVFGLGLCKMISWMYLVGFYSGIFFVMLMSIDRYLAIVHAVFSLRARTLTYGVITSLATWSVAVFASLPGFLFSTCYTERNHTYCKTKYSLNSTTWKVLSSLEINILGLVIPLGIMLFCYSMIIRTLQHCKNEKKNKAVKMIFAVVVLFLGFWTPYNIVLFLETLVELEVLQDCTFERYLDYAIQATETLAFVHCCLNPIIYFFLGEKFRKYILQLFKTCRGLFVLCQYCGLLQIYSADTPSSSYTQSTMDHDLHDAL
Test: not given
It is filed as cell membranes, Membrane. The following applies: chem-1.
Regarding `C/C=C1\[C@H]2C=C(C)C[C@]1(N)c1ccc(=O)[nH]c1C2` [HUPERZINE A], the IC50 entry is recorded as “Not Active”.

Another assay deals with cGMP-specific 3',5'-cyclic phosphodiesterase (Homo sapiens, UniProt O76074). Nature of the assay: DRUGMATRIX: Phosphodiesterase PDE5 enzyme inhibition (substrate: [3H]cGMP + cGMP). It is filed as tissue-based, Platelet. The settings on record: platelet; Not Active = under 50% inhibition at 10 µM.
With `C/C=C1\[C@H]2C=C(C)C[C@]1(N)c1ccc(=O)[nH]c1C2` [HUPERZINE A], the IC50 result is given as “Not Active”.

Tested on in another assay: not listed separately
Kind of assay: DRUGMATRIX: ATPase, Na+/K+ enzyme inhibition (substrate: ATP). The settings on record: Not Active = under 50% inhibition at 10 µM. Format: tissue-based, Sus scrofa, Heart.
For `C/C=C1\[C@H]2C=C(C)C[C@]1(N)c1ccc(=O)[nH]c1C2` [HUPERZINE A], the IC50 result is on record as “Not Active” and the Ki result is “Not Active”.

For another assay, the target named is T4, Leukotriene C4 synthase (Cavia porcellus, UniProt A6XA80).
T4 sequence (A6XA80 whole entry): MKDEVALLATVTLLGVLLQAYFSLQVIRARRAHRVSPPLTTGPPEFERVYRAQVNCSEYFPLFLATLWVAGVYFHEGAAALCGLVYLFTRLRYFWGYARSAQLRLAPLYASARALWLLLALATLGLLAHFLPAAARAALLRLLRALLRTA
Kind of assay: biochemical. Format: tissue-based, Lung.
Details: not given
Consider `C/C=C1\[C@H]2C=C(C)C[C@]1(N)c1ccc(=O)[nH]c1C2` [HUPERZINE A], for which the IC50 result is on record as “Not Active”.

Tested on in a further assay: not listed separately
Nature of the assay: DRUGMATRIX: Glutamate, Kainate radioligand binding (ligand: [3H] Kainic acid). Format: cell membranes, Rattus norvegicus, Wistar, Brain, Membrane. The settings on record: Not Active = under 50% inhibition at 10 µM.
Consider `C/C=C1\[C@H]2C=C(C)C[C@]1(N)c1ccc(=O)[nH]c1C2` [HUPERZINE A], for which the IC50 entry is on record as “Not Active” and the Ki entry is “Not Active”.

Another assay concerns the target T5, Nitric oxide synthase, inducible (Mus musculus, UniProt P29477).
T5 sequence (P29477 whole entry): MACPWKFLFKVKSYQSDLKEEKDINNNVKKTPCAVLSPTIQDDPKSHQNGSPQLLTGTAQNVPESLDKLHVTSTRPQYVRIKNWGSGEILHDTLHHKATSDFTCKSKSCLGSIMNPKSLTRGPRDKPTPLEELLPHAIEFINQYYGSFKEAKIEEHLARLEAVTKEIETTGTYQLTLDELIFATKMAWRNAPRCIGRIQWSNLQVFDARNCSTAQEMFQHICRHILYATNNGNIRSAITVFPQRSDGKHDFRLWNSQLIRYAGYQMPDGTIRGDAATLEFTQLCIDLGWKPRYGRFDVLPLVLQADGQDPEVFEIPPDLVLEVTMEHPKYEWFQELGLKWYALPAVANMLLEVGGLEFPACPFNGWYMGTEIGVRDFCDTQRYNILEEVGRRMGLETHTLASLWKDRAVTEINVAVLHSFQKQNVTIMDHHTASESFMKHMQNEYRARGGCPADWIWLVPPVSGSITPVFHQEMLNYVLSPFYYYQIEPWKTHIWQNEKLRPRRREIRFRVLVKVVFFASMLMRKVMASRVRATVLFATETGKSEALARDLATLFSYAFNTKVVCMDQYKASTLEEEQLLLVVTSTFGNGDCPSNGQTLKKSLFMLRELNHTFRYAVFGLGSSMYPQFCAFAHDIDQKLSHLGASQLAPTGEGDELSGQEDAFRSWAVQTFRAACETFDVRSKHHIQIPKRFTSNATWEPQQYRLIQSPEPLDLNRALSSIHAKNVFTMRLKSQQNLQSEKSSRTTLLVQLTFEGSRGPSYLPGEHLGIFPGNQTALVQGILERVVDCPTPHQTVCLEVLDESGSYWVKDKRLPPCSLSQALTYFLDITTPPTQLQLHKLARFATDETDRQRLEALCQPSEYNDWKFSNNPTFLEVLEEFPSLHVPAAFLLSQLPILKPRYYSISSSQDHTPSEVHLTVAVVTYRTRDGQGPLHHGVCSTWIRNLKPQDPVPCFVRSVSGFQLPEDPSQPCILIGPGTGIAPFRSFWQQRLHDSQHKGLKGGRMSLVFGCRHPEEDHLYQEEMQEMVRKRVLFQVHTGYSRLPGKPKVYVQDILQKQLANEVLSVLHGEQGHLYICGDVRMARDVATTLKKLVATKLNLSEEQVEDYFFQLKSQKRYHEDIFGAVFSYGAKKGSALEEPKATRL
Test: not given
Details: not given
More on the design: species or system Escherichia coli.
On to `C/C=C1\[C@H]2C=C(C)C[C@]1(N)c1ccc(=O)[nH]c1C2` [HUPERZINE A], for which the IC50 result is given as “Not Active”.

Another assay has as its target Insulin receptor (Rattus norvegicus, UniProt P15127). Note: in other assays of this panel Not Active means under 50% inhibition at 10 µM.
Test: not given
Details: not given
It is filed as cell membranes, Wistar, Liver, Membrane.
`C/C=C1\[C@H]2C=C(C)C[C@]1(N)c1ccc(=O)[nH]c1C2` [HUPERZINE A]: the IC50 result is “Not Active”.
